The record followed here is paper PMC10287695, “Non-covalent inhibitors of thioredoxin glutathione reductase with schistosomicidal activity in vivo” (Nature Communications, 2023).

Data set [1] addresses T1, TGR (Schistosoma mansoni, UniProt Q962Y6, X597U).
T1 construct: made in house
The data set is described as follows: Superoxide production (pyrogallol red). Format: biochemical, S. mansoni. As to conditions: replicates. Here is the method: The production of superoxide by TGR was determined by monitoring reaction of superoxide with pyrogallol red[80]. Briefly, a 1 ml reaction mix (500 nM TGR, 100 µM NADPH, and 20–50 µM inhibitor) was incubated at room temperature for 30 min for fast inhibitors, or 2 h for slow inhibitors. For irreversible inhibitor controls TRi-1 (synthesized in house as reported[45]), Stattic (Cayman Chemical), and AF (Cayman Chemical), the samples were desalted using a Zeba spin desalting column. 100 µL of sample was combined with pyrogallol buffer with and without superoxide dismutase (SOD) (50 µM pyrogallol red, 300 µM NADPH; ± 10 units SOD). The reaction was measured at A340 and A540 simultaneously for 2 h.

The nature of data set [2]: Reactivity with GSH or N-Boc protected methyl ester of selenocysteine (LCMS). Format: physicochemical. As to conditions: up to 120 h. Here is the method: Dimethyl bis(N-tert-butoxycarbonyl)-L-selenocystine was synthesized as reported previously. (N-tert-butoxycarbonyl)-L-selenocysteine methyl ester was prepared in situ[86] in methanol or phosphate buffer. Compound 2 was added to the solution of (N-tert-butoxycarbonyl)-L-selenocysteine methyl ester in either methanol or phosphate buffer and incubated for 40 min, 24 h, and 120 h under N2 gas balloon. Additional amounts of NaBH4 were added at 12 h and 96 h to maintain the reducing conditions. Aliquots taken from methanol solution at each of the time points were concentrated in vacuo, mixed with water, and extracted with ethyl acetate. The organic layer was separated, concentrated in vacuo, re-dissolved in methanol and analyzed by LCMS. Aliquots taken from the phosphate buffer solution were extracted with ethyl acetate. The resulting organic layer was separated and concentrated in vacuo. The residue was re-dissolved in methanol and analyzed by LCMS. […] No additional spots were detected by TLC as well.
Covalent TGR inhibitor TRi-1 was used as a positive control for the reaction with (N-tert-butoxycarbonyl)-L-selenocysteine methyl ester. The reactivity of TRi-1 was tested similarly as described above for compound 2.

For data set [3], the target named is T2, TGR (Schistosoma mansoni, UniProt Q962Y6).
T2 construct: made in house
T2 sequence (Q962Y6 1-598): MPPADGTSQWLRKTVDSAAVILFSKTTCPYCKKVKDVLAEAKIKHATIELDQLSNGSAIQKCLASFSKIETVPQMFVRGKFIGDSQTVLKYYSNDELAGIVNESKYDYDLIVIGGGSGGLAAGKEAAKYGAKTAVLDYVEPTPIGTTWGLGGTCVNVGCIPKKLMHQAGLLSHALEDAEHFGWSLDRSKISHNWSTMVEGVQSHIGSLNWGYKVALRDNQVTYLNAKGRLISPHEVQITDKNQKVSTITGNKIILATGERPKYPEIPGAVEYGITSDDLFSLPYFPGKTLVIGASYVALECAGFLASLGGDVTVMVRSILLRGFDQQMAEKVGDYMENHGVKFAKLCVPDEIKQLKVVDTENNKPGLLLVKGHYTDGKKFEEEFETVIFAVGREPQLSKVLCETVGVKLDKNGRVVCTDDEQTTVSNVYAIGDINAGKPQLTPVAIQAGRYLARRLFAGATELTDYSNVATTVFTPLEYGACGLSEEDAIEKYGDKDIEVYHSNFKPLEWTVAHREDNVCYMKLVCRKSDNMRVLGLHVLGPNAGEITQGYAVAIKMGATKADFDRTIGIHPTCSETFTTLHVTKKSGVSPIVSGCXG
The data set is described as follows: Reversibility by jump dilution. The format is biochemical. As for the experimental part:
A reaction of 370 nM TGR, 100 µM NADPH, and 250 µM inhibitor was incubated for 15 min at room temperature. A 100x dilution of the reaction was made and the activity was determined immediately and after 60 min.

The target in data set [4] is T1, TGR. The data set is described as follows: NADPH consumption (oxidase activity). Format: biochemical, S. mansoni. As for the experimental part:
TRi-1, Stattic (both at 50 µM) and AF (20 µM) were incubated with 1 ml of 500 nM TGR and 100 µM NADPH in TGR reaction buffer for 30 min. The samples were desalted using a Zeba spin desalting column (Thermo Fisher Scientific) and 100 µl of the desalted sample was combined with 100 µl of 100 µM NADPH. NADPH consumption was monitored at 340 nm in triplicate. Compounds 1, 4, 6, and 7 (50 µM) were tested in the same fashion without the desalting step and with a first incubation step of 30 min for 6 and 7 and 2 h for 1 and 4.

Data set [5] deals with S. mansoni histone deacetylase 8 (Schistosoma mansoni, UniProt A5H660). The data set is described as follows: Photolabeling of control protein SmHDAC8 with PRP. Format: binding. The settings on record: for 800 nm Normalized Signal: SmHDAC8 1 µM. Here is the method:
TGR (1 µM) or SmHDAC8 (1 µM) was incubated at concentrations of either 5 or 50 µM PRP with or without 100 µM NADPH totaling eight samples. The photocrosslinking and CuAAC click biotinylation were performed as previously described by our group. After resolving samples on SDS-PAGE and nitrocellulose membrane transfer, western blot normalization was performed with the Licor Revert™ 700 Total Protein Stain Kit as described in their protocol. Protein was finally imaged with the Licor IRDye® 800CW streptavidin on the Odyssey Sa imager.

In another data set the target is T3, recombinant TGR (Schistosoma mansoni, UniProt Q962Y6).
T3 construct: made in house
Briefly: Photolabeling of TGR with PRP. The format is binding, S. mansoni. The settings on record: for 800 nm Normalized Signal: TGR 1 µM. As for the experimental part:
[…] The photocrosslinking and CuAAC click biotinylation were performed as previously described by our group. After resolving samples on SDS-PAGE and nitrocellulose membrane transfer, western blot normalization was performed with the Licor Revert™ 700 Total Protein Stain Kit as described in their protocol. Protein was finally imaged with the Licor IRDye® 800CW streptavidin on the Odyssey Sa imager.

The target of another data set is T4, S. mansoni TGR (Schistosoma mansoni, UniProt Q962Y6).
T4 construct: made in house
T4 sequence (Q962Y6 1-598): T2 sequence (Q962Y6 1-598)
Briefly: S. mansoni TGR enzyme inhibition (DTNB reduction). The format is biochemical. As for the experimental part: Recombinant TGR, human TrxR1, B. malayi (Bm)TrxR and human GR proteins were expressed and purified as described[20],[69],[79]. The codon optimized sequence for P. falciparum (PfTrxR, https://www.ncbi.nlm.nih.gov/protein/CAA60574.1/) with an N-terminal 6-His tag was synthesized and inserted into pET15b (GenScript) and expressed in BL21 (DE3) cells and purified as described for human GR[20]. TGR and TrxR enzyme inhibition assays were performed in triplicate at 25 °C as described[20] in 0.1 M potassium phosphate (pH 7.4), 10 mM EDTA, 100 µM NADPH and 0.01% Tween-20. […] The reaction was started with addition of an equal volume of DTNB (6 mM) and NADPH (100 µM) and the increase in A412 during the first 3 min was recorded. […] The reaction was preincubated for 15 min. Activity was initiated with the addition of 1 mM GSSG and 100 μM NADPH and initial rates of NADPH oxidation were monitored at 340 nm. The reactions were done in triplicate. The IC50 was calculated in GraphPad Prism.

The mark [6] stands for this setting: D0: diluted 1:100, activity determined immediately, list for plotting.
Where [7] appears, read: D60: diluted 1:100, activity determined after 60 min, list for plotting.

Structures are written as SMILES. “And” between values parts separate entries of the source, which are not always exact repeats. Identical values can stand only once.

S. mansoni histone deacetylase 8, sequence (A5H660 entry or part of it): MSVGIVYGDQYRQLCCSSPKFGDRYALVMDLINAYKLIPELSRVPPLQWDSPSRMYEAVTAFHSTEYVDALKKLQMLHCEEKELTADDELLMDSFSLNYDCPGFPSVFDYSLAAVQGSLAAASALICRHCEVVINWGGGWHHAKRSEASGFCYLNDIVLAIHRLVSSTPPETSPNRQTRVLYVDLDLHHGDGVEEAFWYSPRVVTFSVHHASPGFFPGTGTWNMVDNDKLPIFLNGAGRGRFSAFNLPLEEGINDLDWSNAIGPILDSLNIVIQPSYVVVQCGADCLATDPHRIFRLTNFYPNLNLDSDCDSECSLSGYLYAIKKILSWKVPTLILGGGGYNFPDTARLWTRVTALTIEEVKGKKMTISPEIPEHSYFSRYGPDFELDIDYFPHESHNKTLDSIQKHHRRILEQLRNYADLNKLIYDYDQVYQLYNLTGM

On to `COc1ccc([N+](=O)[O-])c(S(=O)(=O)c2ccc(Cl)cc2)n1` [TRi-1, reference compound], for which, at TGR [1] (condition not given), the “Superoxide production, Pyrogallol red consumption monitored ΔA540” value is -0.002664 and -0.002628 and -0.002752. The “Superoxide production, Pyrogallol red consumption monitored ΔA540” value at TGR [1] (second of the two columns per substance (condition not given)) is -5.614e-5 and -5.998e-5. In addition, in data set [2], the “reaction with thiol or selenol groups in GSH or protected selenocysteine” value is “An adduct between TRi-1 was detected”. The “reversibility of TGR inhibition” value at TGR [3] (250 µM inhibitor, 100-fold jump dilution) is “irreversible”. Further, at TGR [3] (setting [6]), the “% Activity (ID list), D0” value was -1.4% and -0.0373% and 0.6%; the “% Inhibition (ID list), D0” value was 101.4% and 100.0% and 99.4%. Besides, on TGR [3] (setting [7]), the “% Activity (ID list), D60” value was 2.1% and 1.1% and 1.2%; the “% Inhibition (ID list), D60” value is 97.9% and 98.9% and 98.8%. Also, the “% Activity, 0 min” value on TGR [3] ([0, D0]: 15 min preincubation inhibitor + TGR + NADPH, diluted 1:100, then activity determined immediately, relative to DMSO) was -1.437% and -0.03726% and 0.6084%. The “Inhibitor (rate), 60 min” value at TGR [3] ([60, D60]: 15 min preincubation inhibitor + TGR + NADPH, diluted 1:100, then activity determined after 60 min, raw rate) was 0.001123 and 0.0005896 and 0.0006645. Also, the “% Activity, 60 min” value on TGR [3] ([60, D60]: 15 min preincubation inhibitor + TGR + NADPH, diluted 1:100, then activity determined after 60 min, relative to DMSO) is 2.121% and 1.115% and 1.1607%. The “Inhibitor (rate), -15” value at TGR [3] ([-15]: 15 min preincubation inhibitor + TGR + NADPH, then activity determined, raw rate, replicates) was 0.0012 and -0.0009 and -0.001. The “% Activity, -15” value on TGR [3] ([-15]: 15 min preincubation inhibitor + TGR + NADPH, then activity determined, relative to DMSO, replicates) was 2.39% and -1.793% and -3.401%. At TGR [3] (before dilution (-15), list for plotting), the “% Inhibition (ID list)” value was 101.0% and 101.8% and 97.0%. Besides, the “NADPH consumption by TGR after exposure” value at TGR [4] was “converted TGR to a pro-oxidant enzyme”. Also, the “NADPH consumption (rate/ΔOD340)” value on TGR [4] (replicates) was -0.001513 and -0.00148 and -0.001553.
In the case of `C#CCN(CCCNC(=O)c1c(F)c(F)c(N=[N+]=[N-])c(F)c1F)[C@@H]1C[C@@H]2C[C@H]([C@H]1C)C2(C)C` [PRP], the “800 nm Normalized Signal” value amounted to 1385 in data set [5] (PRP 5 µM, NADPH 0 µM); 2194 in data set [5] (PRP 5 µM, NADPH 100 µM); 298 in data set [5] (PRP 50 µM, NADPH 0 µM); 1875 in data set [5] (PRP 50 µM, NADPH 100 µM); 57760 at recombinant TGR (PRP 2 µM, NADPH 0 µM); 84928 on recombinant TGR (PRP 2 µM, NADPH 100 µM). Also, the “800 nm Normalized Signal” value at recombinant TGR (PRP 10 µM, NADPH 0 µM) amounted to 151239; at recombinant TGR (PRP 10 µM, NADPH 100 µM), 231567. Also, in data set [5] (with or without NADPH), the “labeling of S. mansoni histone deacetylase 8” value is “not labeled”. In addition, the “labeling of TGR with NADPH versus without NADPH” value on recombinant TGR (5 and 50 μM PRP) is “more effective”. The IC50 at S. mansoni TGR (15 min preincubation (enzyme + 100 µM NADPH + compound)) was determined as 34.9 ± 6.11 µM. Further, the inhibition at 15 µM at S. mansoni TGR (read-out: TGR % inhibition) was 30.8%. Besides, the inhibition at 30 µM on S. mansoni TGR (read-out: TGR % inhibition) was determined as 47.5%. Further, the inhibition at 66.7 µM at S. mansoni TGR (read-out: TGR % inhibition) was determined as 55.1%.

As a reminder, the IC50 is the concentration that gives 50% inhibition. By inhibition is commonly meant how much of the control response was suppressed.
